The results in this text go back to PubChem BioAssay (NCI).

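Five concentrations, 48 hours, 96-well plates. TGI: concentration producing complete growth inhibition.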 Bounds are passed on as bounds.

Test systems include SF-268 CNS; NCI-H460 lung; SNB-75 CNS; U251 CNS; NCI-H226 lung; HS 578T breast; HCT-116 colon; MALME-3M melanoma; SN12C renal; SNB-19 CNS; HOP-92 NSCLC; LOX IMVI melanoma; K-562 leukemia; OVCAR-8 ovarian; TK-10 renal; UO-31 renal; HL-60(TB) leukemia; RXF 393 renal.
Assay in all cases: DTP human tumour cell line panel, 48 h

What is called TGI is the concentration at which net growth stops. High values mean lower sensitivity of the cells, low ones greater sensitivity of the cells. `OC(Cc1ccc2ccccc2n1)(C(F)(F)Cl)C(F)(F)Cl`: the TGI with SF-268 CNS, in the assay with NCI-H460 lung, in the assay on SNB-75 CNS, in the assay with U251 CNS, with NCI-H226 lung and in the assay with HS 578T breast was over 10 µM each time. The TGI with HCT-116 colon, in the assay on MALME-3M melanoma, in the assay with SN12C renal, in the assay with SNB-19 CNS, in the assay on HOP-92 NSCLC and in the assay with LOX IMVI melanoma was over 10 µM throughout. In addition, the TGI with K-562 leukemia, in the assay on OVCAR-8 ovarian, with TK-10 renal and with UO-31 renal was over 10 µM in each case.
`COc1cccc(C=C2N=C(c3ccccc3)N(n3c(-c4ccccc4)nc4ccccc4c3=O)C2=O)c1`: the TGI with SF-268 CNS, in the assay on NCI-H460 lung, with SNB-75 CNS, with NCI-H226 lung, with HS 578T breast and in the assay on HCT-116 colon was over 100 µM in each case. Besides, the TGI in the assay on MALME-3M melanoma, with SN12C renal, with SNB-19 CNS, in the assay on LOX IMVI melanoma, with K-562 leukemia and in the assay on OVCAR-8 ovarian was over 100 µM throughout. The TGI in the assay on TK-10 renal was over 100 µM; with UO-31 renal it was over 100 µM; with HL-60(TB) leukemia, 59.2 µM.
Take `NC(=O)C(=CNC(=S)Nc1ccc(S(=O)(=O)Nc2ccccn2)cc1)C(N)=O`: the TGI in the assay on SF-268 CNS, in the assay on NCI-H460 lung, in the assay with SNB-75 CNS, in the assay with U251 CNS, with NCI-H226 lung and in the assay on HS 578T breast was over 100 µM throughout. The TGI in the assay on RXF 393 renal, in the assay on HCT-116 colon, in the assay with SN12C renal, in the assay with SNB-19 CNS, with HOP-92 NSCLC and in the assay with LOX IMVI melanoma was over 100 µM each time. In addition, the TGI in the assay with K-562 leukemia, in the assay with OVCAR-8 ovarian, with TK-10 renal and in the assay on UO-31 renal was over 100 µM in each case.
With `COc1cc2c(cc1O)CN1CCC23C=C[C@@H](O)CC13` (stereo partly specified), the TGI with SF-268 CNS, with NCI-H460 lung, in the assay on SNB-75 CNS, with U251 CNS, with NCI-H226 lung and with RXF 393 renal was over 100 µM in each case. Also, the TGI in the assay with HCT-116 colon, in the assay on MALME-3M melanoma, with SN12C renal, in the assay with SNB-19 CNS, with HOP-92 NSCLC and in the assay with LOX IMVI melanoma was over 100 µM in each case. In addition, the TGI with K-562 leukemia is over 100 µM; with OVCAR-8 ovarian, over 100 µM; with TK-10 renal, over 100 µM; in the assay with UO-31 renal it was over 100 µM; in the assay on HL-60(TB) leukemia it was 38 µM.
For `O=C(c1ccccc1)c1ccc2c(c1)nc1n2C(c2c(F)cccc2F)SC1` (stereo unspecified), the TGI in the assay with SF-268 CNS was over 100 µM; in the assay with NCI-H460 lung, over 100 µM; in the assay on SNB-75 CNS it was 99 µM; in the assay on U251 CNS, over 100 µM; in the assay on NCI-H226 lung it was over 100 µM; in the assay on HS 578T breast it was over 100 µM. For the same compound, the TGI in the assay with RXF 393 renal is over 100 µM; with HCT-116 colon it was 42.2 µM; in the assay with MALME-3M melanoma, over 100 µM; with SN12C renal, over 100 µM; in the assay on SNB-19 CNS, over 100 µM; in the assay on HOP-92 NSCLC, over 100 µM. Moreover, the TGI in the assay with LOX IMVI melanoma was over 100 µM; with OVCAR-8 ovarian it was over 100 µM; in the assay with TK-10 renal, over 100 µM; in the assay with UO-31 renal, 54.8 µM.
In the case of `CCO/C(O)=C(/C(=N)N1CCCC1)C(=O)Nc1cccc(Cl)c1`, the TGI with SF-268 CNS, in the assay with NCI-H460 lung, in the assay with SNB-75 CNS, in the assay on U251 CNS, in the assay with NCI-H226 lung and in the assay with HS 578T breast was over 100 µM throughout. The TGI in the assay with RXF 393 renal, in the assay on HCT-116 colon, in the assay on MALME-3M melanoma, in the assay on SN12C renal, in the assay with SNB-19 CNS and with LOX IMVI melanoma was over 100 µM each time. The TGI in the assay on K-562 leukemia, in the assay on OVCAR-8 ovarian, with TK-10 renal and in the assay on HL-60(TB) leukemia was over 100 µM each time.
For the compound `NC(=O)c1nnsc1NN=O`, the TGI with SF-268 CNS, in the assay on NCI-H460 lung, in the assay with SNB-75 CNS, in the assay with U251 CNS, in the assay with NCI-H226 lung and with HS 578T breast was over 100 µM each time. Moreover, the TGI with RXF 393 renal, in the assay with HCT-116 colon, with MALME-3M melanoma, in the assay with SN12C renal, in the assay with SNB-19 CNS and in the assay with LOX IMVI melanoma was over 100 µM each time. The TGI in the assay with K-562 leukemia, in the assay with OVCAR-8 ovarian, in the assay on UO-31 renal and in the assay on HL-60(TB) leukemia was over 100 µM each time.
Regarding `C[C@@H]1O[C@]2(O)[C@@H]3CCCN3S(=O)(=O)CCN2C1=O`, the TGI in the assay with SF-268 CNS, in the assay with NCI-H460 lung, with SNB-75 CNS, with U251 CNS, with NCI-H226 lung and with RXF 393 renal was over 100 µM in each case. Further, the TGI with HCT-116 colon, with MALME-3M melanoma, in the assay with SN12C renal, in the assay with SNB-19 CNS, in the assay with HOP-92 NSCLC and in the assay with LOX IMVI melanoma was over 100 µM in each case. For the same compound, the TGI with K-562 leukemia, with OVCAR-8 ovarian, with TK-10 renal, in the assay on UO-31 renal and in the assay on HL-60(TB) leukemia was over 100 µM in each case.
On to `CC1(C)OCN(c2ccc(S(N)(=O)=O)cc2)Cn2c1nc1ccccc12`, for which the TGI in the assay with SF-268 CNS, with NCI-H460 lung, in the assay with SNB-75 CNS, in the assay on U251 CNS, in the assay with NCI-H226 lung and in the assay with RXF 393 renal was over 100 µM in each case. For the same compound, the TGI in the assay with HCT-116 colon, with MALME-3M melanoma, in the assay on SN12C renal, in the assay on SNB-19 CNS, in the assay on HOP-92 NSCLC and in the assay with LOX IMVI melanoma was over 100 µM throughout. The TGI with K-562 leukemia, in the assay with OVCAR-8 ovarian, in the assay with TK-10 renal, with UO-31 renal and in the assay on HL-60(TB) leukemia was over 100 µM in each case.
